Values quoted from earlier work as cited in patent publication US20090098217A1, “COMPOSITIONS AND METHODS FOR PROMOTING THICKER HAIR” (priority 2007, published 2009).
Where two headings read alike, the source gives them in different places.

Experiments:
5-alpha-reductase [1] = details: 5 or 10 mg of zinc injected in rat prostate
5-alpha-reductase [2] = details: in vitro

[Zn] [zinc]
5-alpha-reductase activity (5-alpha-reductase [1]): significantly reduced 5-alpha-reductase activity
conversion of testosterone to DHT (5-alpha-reductase [2]; low concentrations of zinc): enhance conversion of testosterone to DHT
conversion of testosterone to DHT (5-alpha-reductase [2]; mM concentrations of zinc): inhibited it
